Laboratory results as given in patent publication US20070249620A1, “Urea Derivative” (priority 2004, published 2007).

Key:
[1] = biological target: T1, mouse DGAT1 (Mus musculus, UniProt Q9Z2A7); assay: DGAT1 inhibitory effect test (microsome fraction, [14C]-oleoyl-CoA, triglyceride radioactivity by TLC); assay type: biochemical; conditions: 0.5 h; concentration of the test compound 0.1 μg/ml; mouse DGAT1 microsomes, 23° C., 30 minutes; read-out: Inhibitory ratio
T1 construct: made in house; host or cells: insect cells (High Five, Sf9, Sf21, etc.), baculovirus expression system (Invitrogen)
T1 sequence (Q9Z2A7 1-498): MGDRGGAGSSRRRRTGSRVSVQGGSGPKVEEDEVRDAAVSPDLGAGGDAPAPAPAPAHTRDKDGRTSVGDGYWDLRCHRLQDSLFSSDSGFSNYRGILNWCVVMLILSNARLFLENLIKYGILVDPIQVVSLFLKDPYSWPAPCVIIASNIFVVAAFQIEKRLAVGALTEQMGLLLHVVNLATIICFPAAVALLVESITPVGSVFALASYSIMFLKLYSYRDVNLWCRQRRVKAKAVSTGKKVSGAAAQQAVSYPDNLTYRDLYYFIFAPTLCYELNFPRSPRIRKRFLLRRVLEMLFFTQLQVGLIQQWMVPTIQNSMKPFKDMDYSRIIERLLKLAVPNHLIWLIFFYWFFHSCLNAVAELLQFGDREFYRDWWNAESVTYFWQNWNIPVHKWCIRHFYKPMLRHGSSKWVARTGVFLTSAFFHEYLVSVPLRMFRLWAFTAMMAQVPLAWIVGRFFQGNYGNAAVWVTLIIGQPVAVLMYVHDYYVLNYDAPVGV
In short: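 Inhibition was scored from radiolabelled triglyceride separated by TLC, relative to vehicle and net of a 0-min background. The reaction ran for 30 min at room temperature (23 °C) in Tris-HCl pH 8.0 with MgCl2, BSA and Triton X-100. Substrates were 30 μM [14C]-oleoyl-CoA and 0.5 mM dioleoylglycerol, with mouse DGAT1 microsomes from baculovirus-infected insect cells as enzyme.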

| Compound | melting point [°C] | inhibition at 0.1 µg/mL [1] [%] |
| --- | --- | --- |
| CCc1csc(NC(=O)Nc2ccc(N3CCN(C(=O)Nc4ccc(OCCO)cc4C(F)(F)F)CC3)cc2)n1 [Example 246, 4-{4-[3-(4-ethyl-thiazol-2-yl)-ureido]-phenyl}-piperazine-1-carboxylic acid [4-(2-hydroxy-ethoxy)-2-trifluoromethyl-phenyl]-amide] | 124 to 125 | ≥ 50 |
| COc1cccc(NC(=O)Nc2ccc(N3CCN(C(=O)Nc4ccc(OCCO)cc4C(F)(F)F)CC3)cc2)c1OC [Example 247, 4-{4-[3-(2,3-dimethoxy-phenyl)-ureido]-phenyl}-piperazine-1-carboxylic acid [4-(2-hydroxy-ethoxy)-2-trifluoromethyl-phenyl]-amide] | 135 to 138 | ≥ 50 |
| COc1cccc(NC(=O)Nc2ccc(N3CCN(C(=O)Nc4ccc(OCCO)cc4Cl)CC3)cc2)c1 [Example 249, 4-{4-[3-(3-methoxy-phenyl)-ureido]-phenyl}-piperazine-1-carboxylic acid [2-chloro-4-(2-hydroxy-ethoxy)-phenyl]-amide] | 198 to 201 | ≥ 50 |
| COc1cc(NC(=O)Nc2ccc(N3CCN(C(=O)Nc4ccc(OCCO)cc4Cl)CC3)cc2)cc(OC)c1 [Example 250, 4-{4-[3-(3,5-dimethoxy-phenyl)-ureido]-phenyl}-piperazine-1-carboxylic acid [2-chloro-4-(2-hydroxy-ethoxy)-phenyl]-amide] | 114 to 116 | ≥ 50 |
| COc1ccc(C)cc1NC(=O)Nc1ccc(N2CCN(C(=O)Nc3ccc(OCCO)cc3Cl)C(C)C2)cc1 (centres unmarked) [Example 252, 4-{4-[3-(2-methoxy-5-methyl-phenyl)-ureido]-phenyl}-2-methyl-piperazine-1-carboxylic acid [2-chloro-4-(2-hydroxy-ethoxy)-phenyl]-amide] | 129 to 131 | ≥ 50 |
| COc1ccc(C)cc1NC(=O)Nc1ccc(N2CCN(C(=O)Nc3ccc(OCCO)cc3Cl)CC2)c(F)c1 [Example 253, 4-{2-fluoro-4-[3-(2-methoxy-5-methyl-phenyl)-ureido]-phenyl}-piperazine-1-carboxylic acid [2-chloro-4-(2-hydroxy-ethoxy)-phenyl]-amide] | 118 to 120 | ≥ 50 |
| COc1ccc(C)cc1NC(=O)Nc1ccc(C2=CCN(C(=O)Nc3ccc(OCCO)cc3Cl)CC2)cc1 [Example 256, 4-{4-[3-(2-methoxy-5-methyl-phenyl)-ureido]-phenyl}-3,6-dihydro-2H-pyridine-1-carboxylic acid [2-chloro-4-(2-hydroxy-ethoxy)-phenyl]-amide] | 117 to 120 | ≥ 50 |

The remaining lines, values ahead:

| melting point [°C] | inhibition at 0.1 µg/mL [1] [%] | Compound |
| --- | --- | --- |
| 152 to 154 | ≥ 50 | COc1ccc(C)cc1NC(=O)Nc1ccc(N2CCN(C(=O)Nc3ccc(OCCO)cc3Cl)CC2)cc1 [Example 248, 4-{4-[3-(2-methoxy-5-methyl-phenyl)-ureido]-phenyl}-piperazine-1-carboxylic acid [2-chloro-4-(2-hydroxy-ethoxy)-phenyl]-amide] |
| 134 to 136 | ≥ 50 | COc1ccccc1NC(=O)Nc1ccc(N2CCN(C(=O)Nc3ccc(OCCO)cc3Cl)CC2)cc1 [Example 251, 4-{4-[3-(2-methoxy-phenyl)-ureido]-phenyl}-piperazine-1-carboxylic acid [2-chloro-4-(2-hydroxy-ethoxy)-phenyl]-amide] |
| 213 to 217 | ≥ 50 | O=C(Nc1ccc(N2CCN(C(=O)Nc3ccc(OCCO)cc3Cl)CC2)cc1)Nc1ccccc1F [Example 255, 4-{4-[3-(2-fluoro-phenyl)-ureido]-phenyl}-piperazine-1-carboxylic acid [2-chloro-4-(2-hydroxy-ethoxy)-phenyl]-amide] |
